Activity calls are given as the source filed them. The calls are words filed in the database; no cut-off is given here.
Tests used:
[1] = system: Mus musculus; test: Anticonvulsant activity in Kunming mouse assessed as reduction in ScPTZ-induced seizure at 30 mg/kg, ip measured after 30 mins; assay type: functional, organism-based
[2] = system: Rattus norvegicus; test: Anxiolytic activity in Wistar rat assessed as increase in time spent in open sided arms at 1 mg/kg, ip measured for 5 mins by elevated plus maze test; assay type: functional, organism-based
[3] = Neurotoxicity in Kunming mouse at 100 mg/kg, ip measured after 30 mins by rotarod test; assay type: toxicity, organism-based; details: in vivo, 0.5 h
[4] = Protection index, ratio of TD50 for neurotoxicity in ip dosed Kunming mouse to ED50 for anticonvulsant activity in ip dosed MES-induced Kunming mouse; assay type: toxicity, organism-based; details: in vivo, read-out: TI
[5] = system: Mus musculus; test: Anticonvulsant activity in Kunming mouse assessed as reduction in MES-induced seizure at 100 mg/kg, ip measured after 30 mins; assay type: functional, organism-based
[6] = system: Mus musculus; test: Anticonvulsant activity in Kunming mouse assessed as reduction in MES-induced seizure at 30 mg/kg, ip measured after 30 mins; assay type: functional, organism-based
[7] = system: Mus musculus; test: Anticonvulsant activity in Kunming mouse assessed as reduction in ScPTZ-induced seizure at 100 mg/kg, ip measured after 30 mins; assay type: functional, organism-based
[8] = system: Mus musculus; test: Anticonvulsant activity in ip dosed Kunming mouse assessed as reduction in MES-induced seizure measured after 30 mins; assay type: functional; details: 0.5 h
[9] = system: Mus musculus; test: Anticonvulsant activity in ip dosed Kunming mouse assessed as reduction in ScPTZ-induced seizure measured after 30 mins; assay type: functional; details: 0.5 h
[10] = system: Rattus norvegicus; test: Effect on GABA level in Wistar rat brain assessed as increase in GABA level at 30 mg/kg, ip measured after 2 hrs; assay type: functional, organism-based
[11] = Neurotoxicity in Kunming mouse at 300 mg/kg, ip measured after 30 mins by rotarod test; assay type: toxicity, organism-based; details: in vivo, 0.5 h
[12] = Displacement of [3H]flunitrazepam from GABA-A receptor benzodiazepine site in mouse cerebellum synaptosomal membrane; assay type: subcellular, Synaptosome
[13] = Neurotoxicity in ip dosed Kunming mouse measured after 30 mins by rotarod test; assay type: toxicity, organism-based; details: in vivo
[14] = system: Rattus norvegicus; test: Effect on GABA level in Wistar rat brain assessed as increase in GABA level at 30 mg/kg, ip measured after 7 days; assay type: functional, organism-based; details: time 7.0 day
[15] = system: Rattus norvegicus; test: Anxiolytic activity in Wistar rat assessed as increase in time spent in open sided arms at 1 mg/kg, ip measured for 5 mins in presence of GABAA receptor antagonist by elevated plus maze test; assay type: functional, organism-based
[16] = Protection index, ratio of TD50 for neurotoxicity in ip dosed Kunming mouse to ED50 for anticonvulsant activity in ip dosed ScPTZ-induced Kunming mouse; assay type: toxicity, organism-based; details: in vivo, read-out: TI
[17] = Neurotoxicity in Kunming mouse at 30 mg/kg, ip measured after 30 mins by rotarod test; assay type: toxicity, organism-based; details: in vivo, 0.5 h

With CCCCCSc1nnc(COc2ccc3c(c2)CCC(=O)N3)o1 the Activity [1] was “Active”, the Activity [2] was “Active” and the Activity [3] was “Non-Toxic”. The selectivity ratio [4] was 64.6, the Activity [5] was “Active” and the Activity [6] was “Active”. For the same compound, the Activity [7] was “Active”, the ED50 [8] was 8.9 mg/kg and the ED50 [9] was 10.2 mg/kg. For the same compound, the Activity [10] was “Active”, the Activity [11] was “Non-Toxic” and the IC50 [12] was 0.11 µM. The TD50 at 0.5 h [13] was 575 mg/kg, the Activity [14] was “Active” and the Activity [15] was “inactive”. The selectivity ratio [16] was 56.4.

In the case of NC(=O)N1c2ccccc2C=Cc2ccccc21 [CARBAMAZEPINE], the selectivity ratio [4] is reported as 6.4, the Activity [6] is reported as “Active” and the ED50 [8] is reported as 11.8 mg/kg. The Activity [17] was “Non-Toxic”.
